Experimental data published in ChEMBL document CHEMBL2073954, “Transport activity of human MRP3 expressed in Sf9 cells: comparative studies with rat MRP3” (Pharm Res, 2002).

B1: ATP-binding cassette sub-family C member 3 (Rattus norvegicus) (protein)
chain: MDRLCGSGELGSKFWDSNLTVYTNTPDLTPCFQNSLLAWVPCIYLWAALPCYLFYLRHHRLGYIVLSCLSRLKTALGVLLWCISWVDLFYSFHGLVHGSSPAPVFFITPLLVGITMLLATLLIQYERLRGVRSSGVLIIFWLLCVICAIIPFRSKILLALAEGKILDPFRFTTFYIYFALVLCAFILSCFQEKPPLFSPENLDTNPCPEASAGFFSRLSFWWFTKLAILGYRRPLEDSDLWSLSEEDCSHKVVQRLLEAWQKQQTQASGPQTAALEPKIAGEDEVLLKARPKTKKPSFLRALVRTFTSSLLMGACFKLIQDLSPSSTHSCSASSSGLFRPHGPYWWGFLLAGLMFVSSTMQTLILHQHYHCIFVMALRIRTAIIGVIYRKALTITNSVKREYTVGEMVNLMSVDAQRFMDVSPFINLLWSAPLQVILAIYFLWQILGPSALAGVAVIVLLIPLNGAVSMKMKTYQVQQMKFKDSRIKLMSEILNGIKVLKLYAWEPTFLEQVEGIRQGELQLLRKGAYLQAISTFIWVCTPFMVTLITLGVYVCVDKNNVLDAEKAFVSLSLFNILKIPLNLLPQLISGMTQTSVSLKRIQDFLNQDELDPQCVERKTISPGRAITIHNGTFSWSKDLPPTLHSINIQIPKGALVAVVGPVGCGKSSLVSALLGEMEKLEGAVSVKGSVAYVPQQAWIQNCTLQENVLFGQPMNPKRYQQALETCALLADLDVLPGGDQTEIGEKGINLSGGQRQRVSLARAVYSDANIFLLDDPLSAVDSHVAKHIFDQVIGPEGVLAGKTRVLVTHGISFLPQTDFIIVLADGQITEMGHYSELLQHDGSFANFLRNYAPDENQEANEGVLQHANEEVLLLEDTLSTHTDLTDTEPAIYEVRKQFMREMSSLSSEGEGQNRPVLKRYTSSLEKEVPATQTKETGALIKEEIAETGNVKLSVYWDYAKSVGLCTTLFICLLYAGQNAVAIGANVWLSAWTNDVEEHGQQNNTSVRLGVYATLGILQGLLVMLSAFTMVVGAIQAARLLHTALLHNQIRAPQSFFDTTPSGRILNRFSKDIYVIHEVLAPTILMLFNSFYTSISTIVVIVASTPLFCVVVLPLAVFYGFVQRFYVATSRQLKRLESVSRSPIFSHFSETVTGTSVIRAYGRVQDFKVLSDAKVDSNQKTTYPYIASNRWLGVHVEFVGNCVVLFSALFAVIGRNSLNPGLVGLSVSYALQVTLSLNWMIRTLSDLESNIIAVERVKEYSKTETEAPWVLESNRAPEGWPRSGVVEFRNYSVRYRPGLELVLKNLTLHVQGGEKVGIVGRTGAGKSSMTLCLFRILEAAEGEIFIDGLNVAHIGLHDLRSQLTIIPQDPILFSGTLRMNLDPFGRYSDEDIWRTLELSHLSAFVSSQPTGLDFQCSEGGDNLSVGQRQLVCLARALLRKSRVLVLDEATAAIDLETDDLIQGTIRTQFEDCTVLTIAHRLNTIMDYNRVLVLDKGVVAEFDSPVNLIAAGGIFYGMAKDAGLA
B2: Multidrug resistance associated protein (Homo sapiens), Q96QA9 (protein)
chain: MDALCGSGELGSKFWDSNLSVHTENPDLTPCFQNSLLAWVPCIYLWVALPCYLLYLRHHCRGYIILSHLSKLKMVLGVLLWCVSWADLFYSFHGLVHGRAPAPVFFVTPLVVGVTMLLATLLIQYERLQGVQSSGVLIIFWFLCVVCAIVPFRSKILLAKAEGEISDPFRFTTFYIHFALVLSALILACFREKPPFFSAKNVDPNPYPETSAGFLSRLFFWWFTKMAIYGYRHPLEEKDLWSLKEEDRSQMVVQQLLEAWRKQEKQTARHKASAAPGKNASGEDEVLLGARPRPRKPSFLKALLATFGSSFLISACFKLIQDLLSFINPQLLSILIRFISNPMAPSWWGFLVAGLMFLCSMMQSLILQHYYHYIFVTGVKFRTGIMGVIYRKALVITNSVKRASTVGEIVNLMSVDAQRFMDLAPFLNLLWSAPLQIILAIYFLWQNLGPSVLAGVAFMVLLIPLNGAVAVKMRAFQVKQMKLKDSRIKLMSEILNGIKVLKLYAWEPSFLKQVEGIRQGELQLLRTAAYLHTTTTFTWMCSPFLVTLITLWVYVYVDPNNVLDAEKAFVSVSLFNILRLPLNMLPQLISNLTQASVSLKRIQQFLSQEELDPQSVERKTISPGYAITIHSGTFTWAQDLPPTLHSLDIQVPKGALVAVVGPVGCGKSSLVSALLGEMEKLEGKVHMKGSVAYVPQQAWIQNCTLQENVLFGKALNPKRYQQTLEACALLADLEMLPGGDQTEIGEKGINLSGGQRQRVSLARAVYSDADIFLLDDPLSAVDSHVAKHIFDHVIGPEGVLAGKTRVLVTHGISFLPQTDFIIVLADGQVSEMGPYPALLQRNGSFANFLCNYAPDEDQGHLEDSWTALEGAEDKEALLIEDTLSNHTDLTDNDPVTYVVQKQFMRQLSALSSDGEGQGRPVPRRHLGPSEKVQVTEAKADGALTQEEKAAIGTVELSVFWDYAKAVGLCTTLAICLLYVGQSAAAIGANVWLSAWTNDAMADSRQNNTSLRLGVYAALGILQGFLVMLAAMAMAAGGIQAARVLHQALLHNKIRSPQSFFDTTPSGRILNCFSKDIYVVDEVLAPVILMLLNSFFNAISTLVVIMASTPLFTVVILPLAVLYTLVQRFYAATSRQLKRLESVSRSPIYSHFSETVTGASVIRAYNRSRDFEIISDTKVDANQRSCYPYIISNRWLSIGVEFVGNCVVLFAALFAVIGRSSLNPGLVGLSVSYSLQVTFALNWMIRMMSDLESNIVAVERVKEYSKTETEAPWVVEGSRPPEGWPPRGEVEFRNYSVRYRPGLDLVLRDLSLHVHGGEKVGIVGRTGAGKSSMTLCLFRILEAAKGEIRIDGLNVADIGDPILFSGTLRMNLDPFGSYSEEDIWWALELSHLHTFVSSQPAGLDFQCSEGGENLSVGQRQLVCLARALLRKSRILVLDEATAAIDLETDNLIQATIRTQFDTCTVLTIAHRLNTIMDYTRVLVLDKGVVAEFDSPANLIAARGIFYGMARDAGLA

Assays:
[1] = biological target: T1, ATP-binding cassette sub-family C member 3 (Rattus norvegicus, UniProt O88563); assay: (§1) TP_TRANSPORTER: uptake in membrane vesicles from Mrp3-expressing Sf9 cells; format: functional, cell membranes, Membrane vesicle
[2] = biological target: T1, ATP-binding cassette sub-family C member 3; assay: (§2) TP_TRANSPORTER: inhibition of E217betaG uptake in membrane vesicle from MRP3-expressing Sf9 cells; format: functional, cell membranes
[3] = biological target: Multidrug resistance associated protein (Homo sapiens, UniProt Q96QA9); assay: as §2; format: functional, cell membranes
[4] = biological target: T1, ATP-binding cassette sub-family C member 3; assay: TP_TRANSPORTER: inhibition of E217betaG uptake in membrane vesicles from Mrp3-expressing Sf9 cells; format: functional, cell membranes, Membrane vesicle
[5] = substrate: C[C@]12CC[C@@H]3c4ccc(O)cc4CC[C@H]3[C@@H]1CC[C@@H]2O[C@@H]1O[C@H](C(=O)O)[C@@H](O)[C@H](O)[C@H]1O; assay: as §1; format: functional, cell membranes, Membrane vesicle
[6] = substrate: C[C@]12CC[C@@H]3c4ccc(O)cc4CC[C@H]3[C@@H]1CC[C@@H]2O[C@@H]1O[C@H](C(=O)O)[C@@H](O)[C@H](O)[C@H]1O; settings: Sf9; Membrane vesicle
Description: TP_TRANSPORTER: uptake in membrane vesicle from MRP3-expressing Sf9 cells

Molecule	Activity [1]	Ki [3] [µM]	Ki [4] [µM]	also measured
CCCCC/C=C\C\C=C/C=C/C=C/[C@@H](SC[C@@H](NC(=O)CC[C@H](N)C(=O)O)C(=O)NCC(=O)O)[C@@H](O)CCCC(=O)O [LEUKOTRIEN C4]	substrate [+]			
CNc1nc2c(Cc3cccnc3)c(C)c(O[C@@H]3O[C@H](C(=O)O)[C@@H](O)[C@H](O)[C@H]3O)c(C)c2s1 [E3040 GLUCURONIDE]	substrate [+]	5.6		Ki [2]: 2.6 µM
N[C@@H](CCC(=O)N[C@H](CSc1ccc([N+](=O)[O-])cc1[N+](=O)[O-])C(=O)NCC(=O)O)C(=O)O	substrate [+]	337	83.8	
CN(Cc1cnc2nc(N)nc(N)c2n1)c1ccc(C(=O)N[C@@H](CCC(=O)O)C(=O)O)cc1 [METHOTREXATE]		1200	90	
O=C(O)[C@H]1O[C@@H](OCc2cc(=O)oc3cc(O)ccc23)[C@H](O)[C@@H](O)[C@@H]1O		105	77	
B1				Km [5]: 33.4 µM
B2				Km [6]: 42.9 µM
